The values below come from PubChem BioAssay AID2771 (The Scripps Research Institute Molecular Screening Center, 2010).

Active and inactive are the calls of the source. No rule for the calls is given here.

By IC50 is commonly meant the concentration that inhibits the measured activity by half.

This experiment addresses Signal transducer and activator of transcription 3 (Homo sapiens) (UniProt P40763). The experiment is described as follows: reduction of STAT3-responsive reporter signal – cell-based, luminescence, dose response, counter-screen for STAT1 inhibitor project, late-stage follow-up (AID 2771). The note with it: STAT3-responsive luciferase reporter cells.
For `O=C(OCC1CCCCC1)c1nn(-c2ccccc2)c(=O)c2ccccc12`, the IC50 is > 55.7 µM (inactive).
For `CNC(=O)c1nn(-c2ccc(F)cc2)c(=O)c2ccccc12`, the IC50 is > 55.7 µM (inactive).
Regarding `CCOc1ccc2oc(=O)cc(CSc3nc4ccccc4c(=O)[nH]3)c2c1`, the IC50 is > 55.7 µM (inactive).
In the case of `COc1ccc(N2CCN(C(=O)c3ccc(-n4c(=S)[nH]c5ccccc5c4=O)cc3)CC2)cc1`, the IC50 is > 55.7 µM (inactive).
As for `Cc1ccc2oc(=O)cc(CSc3nc(-c4ccccc4)c4ccccc4n3)c2c1`, the IC50 was > 55.7 µM (inactive).
With `CC(C(=O)Nc1ccc(F)c(F)c1)N1CCN(S(=O)(=O)c2ccc(C(F)(F)F)cc2)CC1` (centres undefined), the IC50 was > 18.6 µM (inactive).
As for `Cc1ccc(NC(=O)C(c2ccccc2)N2CCN(S(=O)(=O)c3ccccc3)CC2)cc1` (centres undefined), the IC50 is > 55.7 µM (inactive).
For `COc1cc2c(cc1OC)C(=O)N(Cc1nnc(-c3ccc(Cl)cc3)o1)C(=CN1CCOCC1)N2` the value was > 55.7 µM (inactive).
As for `Cc1cc2oc(=O)cc(CSc3nc4ccccc4c(=O)[nH]3)c2cc1Cl`, the IC50 is > 55.7 µM (inactive).
Take `CCOC(=O)Nc1ccc2c(CSc3nc4ccccc4c(=O)[nH]3)cc(=O)oc2c1`: the IC50 was > 55.7 µM (inactive).
For `CCOC(=O)c1ccc(S(=O)(=O)N2CCN(C(C(=O)Nc3ccc(OC)c(Cl)c3)c3ccccc3)CC2)cc1` (centres undefined), the IC50 is > 55.7 µM (inactive).
Take `CC(=O)c1ccc(S(=O)(=O)N2CCN(C(C(=O)Nc3ccc(C)cc3)c3ccccc3)CC2)cc1` (centres undefined): the IC50 was > 55.7 µM (inactive).
In the case of `CCC(C)c1ccc(-c2csc(CN3C(=O)c4ccccc4N/C3=C\N3CCN(C)CC3)n2)cc1` (centres undefined), the IC50 is > 55.7 µM (inactive).
Take `CN1CCN(Cc2nc3ccccc3c(=O)n2Cc2nc(-c3cccc([N+](=O)[O-])c3)cs2)CC1`: the IC50 is > 55.7 µM (inactive).
Next, `CN(C)Cc1nc2ccccc2c(=O)n1Cc1nc(-c2cccc([N+](=O)[O-])c2)cs1`: > 55.7 µM (inactive); `O=C(Nc1ccc(F)cc1)C(c1ccccc1)N1CCN(S(=O)(=O)c2ccc3ccccc3c2)CC1` (centres undefined): > 55.7 µM (inactive); `COc1ccc(C)cc1NC(=O)C(c1ccccc1)N1CCN(S(=O)(=O)c2ccc(F)cc2)CC1` (centres undefined): > 55.7 µM (inactive).
Regarding `CC(C(=O)Nc1ccccc1)N1CCN(S(=O)(=O)c2ccccc2)CC1` (centres undefined), the IC50 is > 55.7 µM (inactive).
For `CN(C)C(=O)c1nn(-c2ccc(F)cc2)c(=O)c2ccccc12`, the IC50 is > 55.7 µM (inactive).
As for `N#Cc1ccccc1S(=O)(=O)N1CCN(C(C(=O)Nc2ccc(F)cc2)c2ccccc2)CC1` (centres undefined), the IC50 is > 55.7 µM (inactive).
Regarding `O=C(c1ccc(-n2c(=S)[nH]c3ccccc3c2=O)cc1)N1CCN(C2CCCCC2)CC1`, the IC50 was > 55.7 µM (inactive).
On to `O=C1c2ccccc2N/C(=C\N2CCOCC2)N1Cc1nc(-c2ccc(F)c(F)c2)cs1`, for which the IC50 was > 18.6 µM (inactive).
`CCOC(=O)N1CCN(C(=O)c2ccc(-n3c(=S)[nH]c4ccccc4c3=O)cc2)CC1`: the IC50 was > 55.7 µM (inactive).
Next, `C=C1NN(c2ccc(C(=O)N3CCC(Cc4ccccc4)CC3)cc2)C(=O)c2ccccc21`: “inactive”; `O=C(Nc1ccc(F)cc1)C(c1ccccc1)N1CCN(C(=O)c2ccccc2)CC1` (centres undefined): > 55.7 µM (inactive).
Turning to `O=C(Nc1ccc(Cl)c(C(F)(F)F)c1)C(c1ccccc1)N1CCN(S(=O)(=O)c2ccccc2)CC1` (centres undefined), the IC50 is > 55.7 µM (inactive).
Turning to `NC(=O)c1ccc(S(=O)(=O)N2CCN(C(C(=O)Nc3ccc(F)cc3)c3ccccc3)CC2)cc1` (centres undefined), the IC50 was > 55.7 µM (inactive).
For `CCOc1ccc(-c2csc(Cn3c(CN4CCN(C)CC4)nc4ccccc4c3=O)n2)cc1` the value was > 55.7 µM (inactive); for `O=C1c2ccccc2N/C(=C\N2CCOCC2)N1Cc1nc(-c2ccccc2F)cs1`, > 55.7 µM (inactive); for `COc1cc2c(cc1OC)C(=O)N(Cc1coc(-c3ccccc3)n1)C(=CN1CCOCC1)N2`, > 55.7 µM (inactive).
`O=C(Nc1ccc(F)cc1)C(c1ccccc1)N1CCN(S(=O)(=O)c2ccc3c(c2)OCCO3)CC1` (centres undefined): the IC50 is > 55.7 µM (inactive).
With `COc1cccc(NC(=O)C(c2ccccc2)N2CCN(S(=O)(=O)c3ccc(C)cc3)CC2)c1` (centres undefined), the IC50 is > 55.7 µM (inactive).
Consider `CCC(C(=O)Nc1ccccc1)N1CCN(S(=O)(=O)c2ccc3c(c2)CCC3)CC1` (centres undefined), for which the IC50 was > 55.7 µM (inactive).
Regarding `O=c1c2ccccc2nc(CN2CCOCC2)n1Cc1nc(-c2ccc[nH]2)cs1`, the IC50 was > 55.7 µM (inactive).
On to `O=C(Nc1ccc(F)cc1)C(c1ccccc1)N1CCN(S(=O)(=O)c2ccccc2)CC1` (centres undefined), for which the IC50 is > 55.7 µM (inactive).
`CN1CCN(Cc2nc3ccccc3c(=O)n2Cc2nc(-c3ccccc3F)cs2)CC1`: the IC50 was > 55.7 µM (inactive).
With `CN(C)Cc1nc2ccccc2c(=O)n1Cc1nc(C(C)(C)C)cs1`, the IC50 is > 55.7 µM (inactive).
Regarding `Cc1ccc(C)c(NC(=O)C(c2ccccc2)N2CCN(S(=O)(=O)c3ccccc3C#N)CC2)c1` (centres undefined), the IC50 was > 55.7 µM (inactive).
Consider `COC(=O)c1nn(-c2ccc(F)cc2)c(=O)c2ccccc12`, for which the IC50 is > 55.7 µM (inactive).
For the compound `CN1CCN(C=C2Nc3ccccc3C(=O)N2Cc2nc(C34CC5CC(CC(C5)C3)C4)cs2)CC1`, the IC50 was > 55.7 µM (inactive).
For the compound `COc1cc2c(cc1OC)C(=O)N(Cc1cc(-c3ccccc3OC)no1)C(=CN1CCOCC1)N2`, the IC50 result is “inactive”.
`Cc1ccc(-n2nc(C(=O)O)c3ccccc3c2=O)cc1Cl`: the IC50 was > 55.7 µM (inactive).
With `Cc1ccc(C)c(S(=O)(=O)N2CCN(C(C(=O)Nc3ccc(F)cc3)c3ccccc3)CC2)c1` (centres undefined), the IC50 was > 55.7 µM (inactive).
`O=C(c1ccc(-n2c(=S)[nH]c3ccccc3c2=O)cc1)N1CCN(c2ccccc2)CC1`: the IC50 is > 55.7 µM (inactive).
Take `O=C(c1ccc(-n2c(=S)[nH]c3ccccc3c2=O)cc1)N1CCN(C(=O)c2ccco2)CC1`: the IC50 is > 55.7 µM (inactive).
For `COc1cccc(-c2csc(Cn3c(CN4CCOCC4)nc4ccccc4c3=O)n2)c1`, the IC50 is > 55.7 µM (inactive).
For `CCOc1ccccc1NC(=O)C(c1ccccc1)N1CCN(S(=O)(=O)c2ccc(F)c(F)c2F)CC1` (centres undefined), the IC50 is > 55.7 µM (inactive).
Regarding `CN1CCN(C(=O)c2ccc(-n3c(=S)[nH]c4ccccc4c3=O)cc2)CC1`, the IC50 was > 55.7 µM (inactive).
Next, `Cc1ccc(-n2nc(C(=O)O)c3ccccc3c2=O)cc1C`: > 55.7 µM (inactive).
For the compound `N#Cc1ccc(S(=O)(=O)N2CCN(C(C(=O)Nc3ccc(F)cc3)c3ccccc3)CC2)cc1` (centres undefined), the IC50 was > 55.7 µM (inactive).
`O=C(O)c1nn(-c2ccc(F)cc2)c(=O)c2ccccc12`: the IC50 is > 55.7 µM (inactive).
Turning to `O=C(c1ccc(-n2c(=S)[nH]c3ccccc3c2=O)cc1)N1CCN(c2ccc(F)cc2)CC1`, the IC50 is > 55.7 µM (inactive).
`O=c1cc(CSc2nc3ccccc3c(=O)[nH]2)c2ccc(O)cc2o1`: the IC50 is > 55.7 µM (inactive).
Turning to `CN(Cc1ccccc1N1CCCC1)C(=O)c1nn(-c2ccccc2)c(=O)c2ccccc12`, the IC50 is > 55.7 µM (inactive).
